According to doi:10.1101/2021.12.13.472350v1, “An amphipathic and cationic antimicrobial peptide kills colistin resistant Gram-negative pathogens in vivo” (bioRxiv, 2021):
In brackets after ≈: the same amount, converted by molar mass.

Legend:
[1] = system: Acinetobacter baumannii ATCC 19606; settings: ATCC 19606, reference strain; MHB-II, 37°C, ~5×10^5 CFU/ml, triplicate
E. coli ATCC 25922 [2] = assay: In vivo sepsis/peritonitis mouse infection model; settings: NMRI mice infected IP
A. baumannii ATCC 19606 = assay: In vivo sepsis/peritonitis mouse infection model; settings: NMRI mice infected IP, 10 mg/kg IP at 1 and 3 h
E. coli ESBL20150072 = assay: In vivo sepsis/peritonitis mouse infection model; settings: NMRI mice infected IP; 10 mg/kg IP at 1 and 3 h; 5 hours post infection
Experimental: Outbred female NMRI mice (NMRI; weight 26–30 g; Taconic, Denmark) were used throughout the study, as previously described ([69], [70]). […] Colistin is recommended at a dose of 5-10 mg/kg, according to the European Medicines Agency (EMA) ([71]). The animals were kept in Macrolon type III cages in groups of six and allowed free access to feed and water. Experiments were initiated after an acclimatization period of 7 days. Inoculation (bacterial infection) was performed by intraperitoneal (IP) injection of 0.5 ml bacterial suspension containing 2×10^7 CFU/ml and 5% (wt/vol) mucin (Sigma-Aldrich). During experiments, groups of eight mice per cage constituting one experimental unit were randomly assigned to treatment (5 mg/kg ChIP and 10 mg/kg ChIP or colistin 10 mg/kg and 24 mg/kg) or no treatment (vehicle). Peptide and colistin was administered as a single bolus injection IP (volume injected 0.2 ml) at 1 hours and again 3. At various times post-infection, ∼200 µL blood from the jaw/cheek was collected in Eppendorf tubes with anti-coagulate (Sarstedt, Nümbrecht, Germany). Peritoneal lavage was performed by injecting 2.0 ml of sterile physiological saline IP. After 1 minute of abdominal massage, the peritoneum was opened and peritoneal lavage fluid (PLF) withdrawn. PLF was immediately placed in an insulated 4 °C cooling box for transportation and kept on ice at 4 °C. The mouse peritonitis model was repeated in duplicates for E. coli ATCC 25922 and A. baumannii ATCC 19606 nad in triplicate for E. coli ESBL20150072, while only a single experiment was carried out on A. baumannii CR17. Animals were sacrificed at various times prior to and following infection. Data from repeated experiments were pooled for analyses. Quantification of bacterial load was performed by spot plating of blood and peritoneal fluid samples from the mice. Dilution series were made in sterile 0.9% NaCl solution, from which 20 μl was spotted on solid lactose agar plates (Bromthymole Blue plates, SSI Diagnostica). Bacterial counts were recorded after overnight incubation at 37 °C in ambient air. The detection limit was 50 CFU/ml. The clinical condition of the mice was determined using a self-developed clinical score. For this score, mouse behavior and appearance were observed and evaluated for the parameters piloerection, attitude, locomotion, breathing and curiosity and awarded a score from 0 to 5 by a blinded observer. 0 = no clinical signs, 1 = slightly ruffled fur, 2 = ruffled fur and strenuous breathing, 3 = 2 plus lethargy, 4 = 3 plus hunched posture and decreased activity, and 5 = moribund. No significant difference in the clinical score between groups was observed 2 and 4 h post treatment. All mice were recorded for score 2.

[3] = system: Klebsiella pneumoniae ATCC 700603; settings: ATCC 700603, SHV-18, mucoid; MHB-II, 37°C, ~5×10^5 CFU/ml, triplicate
E. coli MG1655 = assay: Macromolecular incorporation assay; assay type: cell-based; settings: 10xMIC, high cell density (OD600 = 0.1, approximately 1×10^8 CFU/ml), AB minimal medium
Experimental: Bacteria were grown in cation adjusted Müller-Hinton broth (MHB-II; Sigma-Aldrich) for MIC or Luria-Bertani (LB) broth at 37°C, supplemented with relevant antibiotics when required. For macromolecular incorporation measurements cells were grown in AB minimal medium ([65]) supplemented with 10 μg/ml thiamine and 0.2% glucose without Cas amino acids. Except for glucosamine incorporation where 0.2% glycerol was used as carbon source. Growth rate of the mcr-1 carrying BW25113 strain was determined in MHB-II on exponentially growing cells by measuring OD600 over time.
Macromolecular synthesis was determined by incorporation of […], 3H-arginine or 3H-glucosamine into DNA, RNA, proteins and cell wall respectively, as described previously ([66]). Briefly, 500 µl samples of exponentially growing MG1655 cells were incubated with 0.375 µCi of the relevant precursor for 2 minutes (uridine), 4 minutes (thymidine and arginine), and 20 minutes (glucosamine). Reactions were stopped by adding 5 ml of ice-cold 5% TCA containing 0.1 M NaCl. Samples were filtered (ADVANTEC®, 25mm, lot no: 80302708) washed twice and dried overnight in scintillation vials (PV1AS, MERIDIAN, BIOTECHNOLOGIES Ltd) before counting on a HINDEX 300SL in 5 ml of scintillation fluid (Scintillation fluid, ULTIMA GOLD™, Perkin Elmer, Inc. LOT No.: 77-18151).

E. coli ATCC 25922 [4] = assay: Time kill experiments; assay type: cell-based; settings: 1xMIC, exponentially growing cells, 5×10^5-1×10^6 CFU/ml, MHB-II; plateau, regrowth evident after 3 hours
[5] = 5 mg/kg IP at 1 and 3 h post infection
[6] = 10 mg/kg IP at 1 and 3 h post infection

## CC[C@@H](C)[C@@H](NC(=O)[C@@H](CCCCN)NC(=O)[C@@H](CCCCN)NC(=O)[C@@H](Cc1ccccc1)NC(=O)[C@@H](CC(C)C)NC(=O)[C@@H](CCCCN)NC(=O)[C@H](N)CCCCN)C(=O)N[C@H](CC(C)C)C(=O)N[C@H](CCCNC(=N)N)C(=O)N[C@H](Cc1ccc(O)cc1)C(=O)N[C@H](CC(C)C)C(N)=O [ChIP]
[1]
  MIC: 8 µg/mL (≈ 5.52 µM)
E. coli ATCC 25922 [2]; [5]
  peritoneal bacterial titers after treatment: 1-5×10^5 CFU/ml
  reduction of peritoneal bacterial titers: 2 logs
E. coli ATCC 25922 [2]; [6]
  peritoneal CFUs after treatment: 1×10^3 CFU/ml
  reduction of peritoneal CFUs: 4 logs
A. baumannii ATCC 19606; after 5 hours
  reduction of peritoneal bacterial titers relative to saline control: 3-4 log
A. baumannii ATCC 19606; after 5 hours, saline control around 1×10^8 CFU/ml
  peritoneal bacterial titers: 1×10^3-1×10^4 CFU/ml
A. baumannii ATCC 19606; detection limit 50 CFU/ml
  bacterial blood titers: reduce CFU/ml to the detection limit
E. coli ESBL20150072
  peritoneal titers: 1×10^4 CFU/ml
  reduction in peritoneal titers compared to vehicle (1×10^8 CFU/ml): 3 logs
[3]
  MIC: 8 µg/mL (≈ 5.52 µM)
E. coli MG1655
  incorporation of radioactive labelled precursors into DNA, RNA, protein and peptidoglycan: blocked incorporation
E. coli ATCC 25922 [4]
  reduction in viable cells: 3-4 log
